We go through 21 compounds from patent US8278482B2, “Antimicrobial N-chlorinated compositions” (priority 2008, dated 2012).

Common to all, as to type: cell-based
Data set [1] relates to Staphylococcus aureus (ATCC 29213). In words: Antimicrobial activity (MBC), S. aureus ATCC 29213. On the procedure: (§1) To determine antimicrobial activity, Escherichia coli (ATCC 25922), Staphylococcus aureus (ATCC 29213), Pseudomonas aeruginosa (ATCC 27853), and Candida albicans (ATCC 10231) were used in primary screening. In addition, Escherichia coli (MCC 80392), Staphylococcus aureus (MCC 91731), Pseudomonas aeruginosa (MCC 4438), and Candida albicans (MCC 50319), provided by Alcon Laboratories, Fort Worth, Tex., were used. The microbial cultures were diluted in sterile saline pH 4 to prepare inocula. Test compounds were titrated by stepwise two-fold dilutions in sterile saline pH 4. A total of 1.0×10^5 to 1.0×10^6 Colony Forming Units (CFU)/mL microbe was added to each tube, mixed by gentle vortexing, and then incubated at room temperature for 1 h. Microbial plating on Petri dishes (Tryptic Soy agar or Saboraud's Dextrose agar) was performed immediately after the designated exposure after neutralization of the test article dilutions in Dey-Engley Broth. Plates were incubated at 37° C., and the numbers of microbes were counted by direct colony count to quantitate the surviving microbes as CFU/mL. Positive growth controls were made with sterile 0.9% saline. Compounds were dissolved in unbuffered isotonic saline (SAL) or phosphate buffered saline (PBS) at pH 4 or pH 7 (using HCl and/or NaOH as needed). All compounds were tested three times. The results are tabulated to show the comparison of antimicrobial effectiveness range of the compounds.
(§2) Data shown are the Minimum Bactericidal Concentration (MBC) or Minimum Fungicidal Concentration (MFC) (≧99.9% kill) in μg/mL.

For data set [2], the system named is Candida albicans (ATCC 10231). In words: Antimicrobial activity (MFC), C. albicans ATCC 10231. Particulars: ATCC10231, C. albicans ATCC 10231, pH 4 (Sal), 1 h exposure at room temperature, read-out: Minimum Fungicidal Concentration (MFC) (≧99.9% kill). The procedure:
as §1, §2

Data set [3] relates to Escherichia coli (ATCC 25922). In words: Antimicrobial activity (MBC), E. coli ATCC 25922. The procedure: as §1, §2
Data set [4] relates to mouse fibroblast cells (ATCC CCL-1, L929). Put plainly: Cytotoxicity, WST-8 colorimetric assay. Particulars: 60 min exposure. The procedure: Cytotoxicity was assessed by a colorimetric assay system using the Dojindo™ cell counting kit containing 2-(2-methoxy-4-nitrophenyl)-3-(4-nitrophenyl)-5-(2,4-disulfophenyl)-2H-tetrazolium, monosodium salt (WST-8). In this assay, the WST-8 reagent was bioreduced by cellular dehydrogenases to a formazan product that is highly soluble in tissue culture medium.
In a standard assay, mouse fibroblast cells (ATCC CCL-1, L929), were cultured in Minimum Essential Medium, α-medium supplemented with 10% heat inactivated fetal bovine serum, L-glutamine, penicillin and streptomycin. Cells were trypsinized and counted under the microscope and seeded at 1.5×10^4 total cells per 100 μL per well of a flat-bottom 96-well plate in order to achieve ˜80% confluence after overnight incubation at 37° C. On the day of the assay, the tissue culture medium was removed and replaced with 30 μL of fresh medium.
Test articles were prepared as 2-fold serial dilutions and 170 μL of each dilution is added into each of 4-wells (total volume per well=200 μL). The test plate was then returned to the 37° C. incubator for 60 min. Immediately after the exposed time, test article from each well was replaced with 200 μL of fresh media. Plates were incubated at 37° C. for 18-20 hours. The following day growth medium was replaced with 100 μL/well of fresh medium containing 10 μL WST-8 reagent. Cells were incubated under growth conditions (5% CO2 at 37° C. humidified incubator), protected from light, until color development was achieved (usually 1-4 hours). Absorbance was read at 450 nm with reference wavelength at 750 nm using Molecular Device SpectraMax M5 plate reader. Untreated or vehicle only treated cells receiving WST-8 reagent served as positive cell proliferation controls.
The absorbance A450/750 from each well of untreated cells and from each well within the dilution series was measured. […] Next, a non-linear regression (curve fit) analysis was performed on all the absorbance data measured from the dilution series, including the absorbance data obtained from wells of the untreated control cells. For each dilution within the dilution series, an average A450/750 was calculated from the four replicate wells.
On the technique in general: Tetrazolium assays rely on reduction of a dye to a coloured formazan, in cell work by metabolically active cells.

Where [5] appears, read: ATCC29213, S. aureus ATCC 29213, pH 4 (Sal), 1 h exposure at room temperature, read-out: Minimum Bactericidal Concentration (MBC) (≧99.9% kill).
The mark [6] stands for this setting: ATCC25922, E. coli ATCC 25922, pH 4 (Sal), 1 h exposure at room temperature, read-out: Minimum Bactericidal Concentration (MBC) (≧99.9% kill).
[7] abbreviates: ATCC25922, E. coli ATCC 25922, pH 7 (PBS), 1 h exposure at room temperature, read-out: Minimum Bactericidal Concentration (MBC) (≧99.9% kill).

The structures appear in SMILES notation. Read-outs that look alike come from different tables or passages of the source.

Turning to `CC(C)(C[N+](C)(C)CCS(=O)(=O)O)N(Cl)Cl.[Cl-]` [Compound 21-90, 2-(Dichloroamino)-N,N-2-trimethyl-N-(2-sulfoethyl)propan-1-ammonium chloride], the MBC was 16 µg/mL in data set [1] (setting [5]) and 64 µg/mL in data set [3] (setting [6]). Besides, the MFC in data set [2] came out at 128 µg/mL.

Turning to `CC(C)(CC[N+](C)(C)CCC[N+](C)(C)C)N(Cl)Cl.[Cl-].[Cl-]` [Compound 21-128, N^1-(3-(Dichloroamino)-3-methylbutyl)-N^1,N^1,N^3,N^3,N^3-pentamethylpropane-1,3-diammonmium chloride], the MBC in data set [1] (setting [5]) came to 4 µg/mL; in data set [3] (setting [6]), 16 µg/mL. Further, the “CT50 (concentration that results in survival of 50% of the cells)” value in data set [4] (pH 4 (Acetate)) amounted to 1.3 mM. Further, in data set [2], the MFC worked out at 128 µg/mL.

As for `CC(C)(CC[N+]1(C)CCCCCC1)N(Cl)Cl.[Cl-]` [Compound 21-118, 1-(3-(Dichloroamino)-3-methylbutyl)-1-methylazepanium chloride], the MBC in data set [1] (setting [5]) and in data set [3] (setting [6]) was 4 µg/mL in each case. Besides, the “CT50 (concentration that results in survival of 50% of the cells)” value in data set [4] (pH 4 (Sal)) was determined as 0.9 mM. The MFC in data set [2] turned out to be 16 µg/mL.

As to `CC(C)(C[N+]1(C)CCCCC1)N(Cl)Cl.[Cl-]` [Compound 21-78, 1-(2-(dichloroamino)-2-methylpropyl)-1-methylpiperidinium chloride], the MBC in data set [1] (setting [5]) was determined as 8 µg/mL; in data set [3] (setting [6]), 16 µg/mL. Also, the MFC in data set [2] amounted to 64 µg/mL.

For `CN(CC[N+](C)(C)C)C(=O)CC(C)(C)N(Cl)Cl.[Cl-]` [Compound 21-14, 2-(3-(Dichloroamino)-N,3-dimethylbutanamido)-N,N,N-trimethylethanaminium chloride], the figures for the MBC in data set [1] (setting [5]), in data set [3] (setting [6]) and in data set [3] (setting [7]) were 2 µg/mL, 16 µg/mL and 256 µg/mL, respectively. Further, the MFC in data set [2] stood at 32 µg/mL.

As to `CC(C)(CCS(=O)(=O)CCC[N+](C)(C)C)N(Cl)Cl.[Cl-]` [Compound 21-112, S-3-(3-(Dichloroamino)-3-methylbutylsulfonyl)-N,N,N-trimethylpropan-1-ammonium chloride], the MBC in data set [1] (setting [5]) was found to be 2 µg/mL; in data set [3] (setting [6]), 8 µg/mL. In addition, the “CT50 (concentration that results in survival of 50% of the cells)” value in data set [4] (pH 4 (Sal)) is 1.4 mM. In addition, in data set [2], the MFC came out at 32 µg/mL.

Take `CC(C)(c1cn(CC[N+](C)(C)C)nn1)N(Cl)Cl.[Cl-]` [Compound 21-92, 2-(4-(2-(Dichloroamino)propan-2-yl)-1H-1,2,3-triazol-1-yl)-N,N,N-trimethylethanaminium chloride]: the values for the MBC in data set [1] (setting [5]) and in data set [3] (setting [6]) were 4 µg/mL and 8 µg/mL, respectively. For the same compound, the MFC in data set [2] was 32 µg/mL.

Regarding `CC(C)(CC[N+]12CCC(CC1)CC2)N(Cl)Cl` [Compound 21-120, 1-(3-(Dichloroamino)-3-methylbutyl)-1-azoniabicyclo[2.2.2]octane methanesulfonate], the MBC in data set [1] (setting [5]) was 2 µg/mL; in data set [3] (setting [6]), 8 µg/mL. Besides, in data set [4] (pH 4 (Acetate)), the “CT50 (concentration that results in survival of 50% of the cells)” value worked out at 1.3 mM. In addition, the MFC in data set [2] was determined as 32 µg/mL.

Take `CC(C)(CC(=O)OCC[N+]1(C)CCCCC1)N(Cl)Cl.[Cl-]` [Compound 21-93, 1-(2-(3-(Dichloroamino)-3-methylbutanoyloxy)ethyl)-1-methylpiperidinium chloride]: the MBC in data set [1] (setting [5]) is 2 µg/mL; in data set [3] (setting [6]), 4 µg/mL; in data set [3] (setting [7]) it was 512 µg/mL.

Regarding `C[S+](C)CC(C)(C)N(Cl)Cl.[Cl-]` [Compound 21-86, (2-(Dichloroamino)-2-methylpropyl)dimethylsulfonium chloride], the MBC in data set [1] (setting [5]) came out at 4 µg/mL; in data set [3] (setting [6]), 8 µg/mL. Further, in data set [4] (pH 7 (PBS)), the “CT50 (concentration that results in survival of 50% of the cells)” value stood at 0.6 mM. In data set [2], the MFC amounted to 128 µg/mL.

With `CC(=O)N1CC[N+](C)(CC(C)(C)N(Cl)Cl)CC1.[Cl-]` [Compound 21-110, 4-Acetyl-1-(2-(dichloroamino)-2-methylpropyl)-1-methylpiperazin-1-ium chloride], the MBC in data set [1] (setting [5]) was 16 µg/mL; in data set [3] (setting [6]), 64 µg/mL. In data set [4] (pH 4 (Sal)), the “CT50 (concentration that results in survival of 50% of the cells)” value was 0.9 mM. In data set [2], the MFC was greater than 1020 µg/mL.

With `CCCCCCCCCCCC[N+](C)(C)CCC(C)(C)N(Cl)Cl` [Compound 21-138, N-(3-(Dichloroamino)-3-methylbutyl)-N,N-dimethyldodecan-1-ammonium chloride], in data set [4] (pH 4 (Acetate)), the “CT50 (concentration that results in survival of 50% of the cells)” value came to 0.5 mM.

On to `CC(C)(CC[N+](C)(C)C1CCCCC1)N(Cl)Cl.[Cl-]` [Compound 21-126, N-(3-(Dichloroamino)-3-methylbutyl)-N,N-dimethylcyclohexanammonium chloride], for which the MBC was found to be 4 µg/mL in data set [1] (setting [5]) and 16 µg/mL in data set [3] (setting [6]). In data set [4] (pH 4 (Acetate)), the “CT50 (concentration that results in survival of 50% of the cells)” value was found to be 0.6 mM. Also, in data set [2], the MFC is greater than 1020 µg/mL.

Regarding `CC(C)(CC[N+]1(C)CCC(F)(F)CC1)N(Cl)Cl.[Cl-]` [Compound 21-116, 1-(3-(Dichloroamino)-3-methylbutyl)-4,4-difluoro-1-methylpiperidinium chloride], the MBC came out at 2 µg/mL in data set [1] (setting [5]) and 4 µg/mL in data set [3] (setting [6]). In addition, the “CT50 (concentration that results in survival of 50% of the cells)” value in data set [4] (pH 4 (Sal)) is recorded as 3.0 mM. In addition, the MFC in data set [2] stood at 32 µg/mL.

Regarding `CC(C)(CCC[P+](C)(C)C)N(Cl)Cl.[Cl-]` [Compound 21-106, (4-(Dichloroamino)-4-methylpentyl)trimethylphosphonium chloride], the figures for the MBC in data set [1] (setting [5]) and in data set [3] (setting [6]) were 2 µg/mL and 4 µg/mL, respectively. In addition, the MFC in data set [2] is greater than 256 µg/mL.

In the case of `CC1(C)CC[N+](C)(CCC(C)(C)N(Cl)Cl)CC1.[Cl-]` [Compound 21-122, 1-(3-(Dichloroamino)-3-methylbutyl)-1,4,4-trimethylpiperidinium chloride], the MBC in data set [1] (setting [5]) was 4 µg/mL; in data set [3] (setting [6]), 16 µg/mL. For the same compound, the “CT50 (concentration that results in survival of 50% of the cells)” value in data set [4] (pH 4 (Acetate)) is reported as 1.0 mM.

As for `CC(C)(CCC[N+](C)(C)C)N(Cl)Cl.[Cl-]` [Compound 21-108], the MBC in data set [1] (setting [5]) was 2 µg/mL; in data set [3] (setting [6]) it was 8 µg/mL. For the same compound, the MFC in data set [2] is 256 µg/mL.

For `CC[N+](C)(C)CCC(C)(C)N(Cl)Cl.[Cl-]` [Compound 21-134, 3-(Dichloroamino)-N-ethyl-N,N,3-trimethylbutan-1-ammonium chloride], the “CT50 (concentration that results in survival of 50% of the cells)” value in data set [4] (pH 4 (Acetate)) is reported as 1.4 mM.

For `CC(C)(CC[N+]1(C)CCCC1)N(Cl)Cl.[Cl-]` [Compound 21-130, 1-(3-(Dichloroamino)-3-methylbutyl)-1-methylpyrrolidinium chloride], the MBC came out at 2 µg/mL in data set [1] (setting [5]) and 4 µg/mL in data set [3] (setting [6]). Moreover, the MFC in data set [2] was determined as 32 µg/mL.

As to `CCCC[N+](C)(CCCC)CCC(C)(C)N(Cl)Cl` [Compound 21-48, N,N-Dibutyl-3-(dichloroamino)-N-3-dimethylbutan-1-aminium chloride], the MBC came out at 4 µg/mL in data set [1] (ATCC29213, 1 h, pH 4, read-out: Minimum Bactericidal Concentration (MBC) (≧99.9% kill)) and 16 µg/mL in data set [3] (ATCC25922, 1 h, pH 4, read-out: Minimum Bactericidal Concentration (MBC) (≧99.9% kill)).

Take `CC(C)(CC[N+](C)(C)CC(F)(F)F)N(Cl)Cl.[Cl-]` [Compound 21-132, 3-(Dichloroamino)-N,N,3-trimethyl-N-(2,2,2-trifluoroethyl)butan-1-ammonium chloride]: the MBC in data set [1] (setting [5]) turned out to be 2 µg/mL; in data set [3] (setting [6]) it was 4 µg/mL. For the same compound, in data set [2], the MFC turned out to be 32 µg/mL.
